Assay results reported in patent US20250281610A1, “P2RY2 ACTIVITY MODULATORS” (Deutsches Krebsforschungszentrum Stiftung des öffentlichen …, priority 2022, published 2025).

Key:
[1] = test system: CEA-specific CAR transduced T cells co-cultured with SW480 cells; test: T cell activation in co-culture of CEA-specific CAR-T cells with SW480 cells; format: cell-based, human; conditions: 40 μM ATP, 200 μM ATPγS, 10 μM Diquafosol, 5 μM Denufosol, 24 hours (FIG. 19)
Procedure: FIG. 19. Effects of P2RY2 agonist and P2RY2 antagonist on T cell activity in T cell-cancer cell co-cultures. T cells transduced with a CEA-specific CAR (CAR-T) were co-cultured with genetically edited SW480 cells for 24 hours in the absence or presence of 40 μM ATP, 200 μM ATPγS, 10 μM Diquafosol, 5 μM Denufosol and 10 μM AR-C 118925XX (AR-C). Control cells: SW480 cells transduced with non-targeting sgRNA and Cas9 (gNT); P2RY2 deficient cells: SW480 cells transduced with P2RY2-targeting sgRNA and Cas9 (gP2RY2-3, gP2RY2-4); B7-H3 (CD276) deficient cells: SW480 cells transduced with B7-H3-targeting sgRNA and Cas9 (gCD276-1); P2RY2 and B7-H3 double deficient cells: SW480 cells transduced with P2RY2-targeting sgRNA, B7-H3-targeting sgRNA, and Cas9 (gCD276-1 gP2RY2-3 DKO, gCD276-1 gP2RY2-4 DKO); P2RY2 overexpression cells: SW480 cells transduced with the open reading frame of P2RY2 (P2RY2-OE); B7-H3 overexpression cells: SW480 cells transduced with the open reading frame of CD276 (CD276-OE). Transduced cancer cells were selected by antibiotics according to antibiotic resistance genes carried by the lentiviral constructs. Flow cytometry analysis of expression of CD25 and CD69 and production of IFNγ within the CD3+CD8+ or CD3+CD4+ cell population is shown (values indicate the percentages of positive cells).
(§1) MART-1 specific T cells were generated as described (Mezzadra et al., Nature 549, 106-110 (2017); Jorritsma et al., Blood 110 (10): 3564-3572. (2007)). To generate CD33-specific chimeric antigen receptor (CAR) T cells and CEA-specific CAR-T cells, a CD33Hul95-CD28Z CAR (described in WO 2019/178382) cassette and MFE-23 (described in US20050147614A1)-CD28Z CAR were separately cloned into retroviral vectors, and the resulting virus was used to transduce T cells as described (Mezzadra et al., Nature 549, 106-110 (2017); Jorritsma et al., Blood 110 (10): 3564-3572. (2007)).
The open reading frames of transcripts of P2RY2 (ENST00000393597.7) or CD276 (ENST00000318443.10), were ordered as a codon optimized gBlock Gene Fragment (Integrated DNA Technologies or Twist Bioscience) and cloned into a lentiviral vector containing a blasticidin selection cassette. Constructs were verified by Sanger sequencing.
(§2) MART1-specific CD8+ T cells and MART1 epitope-expressing cancer cells were mixed at a ratio of 1:16 to 1:1. CD33 CAR-T cells and CD33 expressing THP-1 cells were mixed at a ratio of 1:16 to 1:4. CEA CAR-T cells and CEA expressing SW480 cells were mixed at a ratio of 1:1. Next, cells were centrifugated at 1,600 g for 3 min and incubated at 37° C. and 5% CO2 for 12-72 hours. T cell activation was assessed by surface staining with anti-CD137-BV421 (4-1BB, Biolegend), anti-CD137-PE/Cy7 (4-1BB, Biolegend), anti-CD69-APC/Fire™ 750 (FN50, Biolegend), anti-CD25-AF700 (BC96, Biolegend), anti-CD25-APC (BC96, Biolegend) antibodies and intracellular staining with anti-IL-2-PE/Cy7 (MQ1-17H12, Biolegend), anti-IFN-7-BV421 (4S.B3, Biolegend), anti-TNF-α-BV785 (MAb11, Biolegend), anti-TNF-α-APC (MAb11, Biolegend) antibodies, followed by flow cytometry analysis. For intracellular staining, brefeldin A (Biolegend) was added to the cell culture medium 4 h before cells were harvested. The viability of cancer cells that grow in suspension including THP-1 cells was assessed by flow cytometry-based absolute cell counting using AccuCount beads (Spherotech). For adherent cancer cells including BxPC3, MIA PaCa-2, MDA-MB-231 and MCF7, the cell viability was quantified using CellTiter-Blue Cell Viability Assay (Promega).

B7-H3 = test: Flow cytometry analysis of B7-H3 expression after ATP or UTP stimulation; format: cell-based, human; conditions: for B7-H3 expression: P2RY2 proficient cells (THP-1, FIG. 3) stimulated with ATP or UTP for 24 hours
Excerpt: FIG. 2. Flow cytometry analysis of B7-H3 expression in wildtype (WT) and P2RY2-deficient bulk THP-1, U937, KBM7, and K562 cells (P2RY2-3 KO and P2RY2-4 KO) in the absence or presence of ATP. Values indicate MFI relative to untreated WT cells.
FIG. 3. Flow cytometry analysis of B7-H3 expression in THP-1 cells in the absence or presence of ATP. Values indicate MFI relative to untreated cells.
THP-1 cells, U937 cells, K562 cells, and KBM7 cells were transduced with a lentiviral vector encoding Cas9 along with a Blasticidin S resistance cassette ([…] deaminase). One day after the transduction, cells were selected with 50 microgram/milliliter Blasticidin S Hydrochloride for […]. Next, surviving cells were transduced with one of the lentiviral vectors encoding sgRNA targeting the sequences 5′-[…]-3′ (SEQ ID NO:6) and 5′-[…]-3′ (SEQ ID NO:7) on the coding strand of P2RY2 gene, along with a puromycin resistance cassette (puromycin N-acetyltransferase). One day after the transduction, cells were selected with 2 microgram/milliliter Puromycin dihydrochloride for 48-96 hours. Selected cells were expanded, subjected to genomic DNA isolation, and analyzed for deleterious editing of the P2RY2 locus by PCR (using primers 5′-[…]-3′ (SEQ ID NO:8) and 5′-[…]-3′ (SEQ ID NO:9)) and Sanger sequencing of the PCR products using primer 5′-[…]-3′ (SEQ ID NO:8) for the sgRNA(5′-[…]-3′, SEQ ID NO:6)) transduced cell and 5′-[…]-3′ (SEQ ID NO:9) for the sgRNA(5′-[…]-3′, SEQ ID NO:7) transduced cell.
The polyclonal cells transduced with Cas9 and sgRNA targeting P2RY2, and wildtype cells were cultured in the absence or presence of ATP or UTP (ligands of P2RY2, Sigma) for 24 hours, stained with anti-B7-H3 antibody and analyzed by flow cytometry.

THP-1 cells = test: Viability of THP-1 cells in co-culture with CD33-specific CAR-T cells (flow cytometry-based cell counting); set-up: species or system human; conditions: 100 uM Diquafosol, 24 hours, co-culture with CD33-specific CAR-T cells (FIG. 9)
Procedure: FIG. 8. Effects of P2RY2 antagonist on T cells and cancer cells in T cell-cancer cell co-cultures. T cells transduced with CD33-specific CAR (CAR-T) were co-cultured with genetically edited THP-1 cells in the absence or presence of 5 μM AR-C 118925XX (AR-C) for 6-24 hours. Control cells: THP-1 cells transduced with non-targeting sgRNA and Cas9 (gNT); P2RY2 deficient cells: THP-1 cells transduced with P2RY2-targeting sgRNA and Cas9 (gP2RY2-3, gP2RY2-4); B7-H3 (CD276) deficient cells: THP-1 cells transduced with B7-H3-targeting sgRNA and Cas9 (gCD276-1); P2RY2 and B7-H3 double deficient cells: THP-1 cells transduced with P2RY2-targeting sgRNA, B7-H3-targeting sgRNA, and Cas9 (gCD276-1 gP2RY2-3 DKO, gCD276-1 gP2RY2-4 DKO); P2RY2 overexpression cells: THP-1 cells transduced with the open reading frame of P2RY2 (P2RY2-OE); B7-H3 overexpression cells: THP-1 cells transduced with the open reading frame of CD276 (CD276-OE). […]
FIG. 9. […] Control cells THP-1 cells transduced with non-targeting sgRNA and Cas9 (Ctrl.); P2RY2 overexpression cells: THP-1 cells transduced with the open reading frame of P2RY2 (P2RY2-OE). […]
The open reading frames of transcripts of P2RY2(ENST00000393597.7) or CD276(ENST00000318443.10), were ordered as a codon optimized gBlock Gene Fragment (Integrated DNA Technologies or Twist Bioscience) and cloned into a lentiviral vector containing a blasticidin selection cassette. […]
MART1-specific CD8+ T cells and MART1 epitope-expressing cancer cells were mixed at a ratio of 1:16 to 1:4. […] T cell activation was assessed by surface staining with anti-CD137-BV421 (4-1BB, Biolegend), anti-CD69-APC/Fire™ 750 (FN50, Biolegend), anti-CD25-AF700 (BC96, Biolegend) antibodies and intracellular staining with anti-IL-2-PE/Cy7 (MQ1-17H12, Biolegend), anti-IFN-7-BV421 (4S.B3, Biolegend), anti-TNF-α-BV785 (MAb11, Biolegend) antibodies, followed by flow cytometry analysis. […] The viability of cancer cells that grow in suspension including THP-1 cells was assessed by flow cytometry-based absolute cell counting using AccuCount beads (Spherotech). […]

BxPC3 cells = test: Viability of BxPC3 cells in co-culture with MART-1-specific TCR-T cells (CellTiter-Blue); format: cell-based, human; conditions: single agent: 5 μM AR-C, 10 μg/ml atezolizumab or 10 μg/ml durvalumab, 6-24 hours (FIG. 11)
Excerpt: FIG. 11. […] Untreated cells served as the control.
as §1, with “T” for “T cells and CEA-specific CAR-T”, “was” for “and MFE-23 (described in US20050147614A1)-CD28Z CAR were separately”, “into a” for “into”, “vector,” for “vectors,”
as §2, with “to” for “to 1:1. CD33 CAR-T cells and CD33 expressing THP-1 cells were mixed at a ratio of 1:16 to”, “1:4.” for “1:4. CEA CAR-T cells and CEA expressing SW480 cells were mixed at a ratio of 1:1.”, “Biolegend),” for “Biolegend), anti-CD137-PE/Cy7 (4-1BB, Biolegend),”, “anti-CD25-AF700” for “anti-CD25-AF700 (BC96, Biolegend), anti-CD25-APC”, “anti-TNF-α-BV785” for “anti-TNF-α-BV785 (MAb11, Biolegend), anti-TNF-α-APC”, “BxPC3” for “BxPC3, MIA PaCa-2, MDA-MB-231”

For Nc1ncnc2c1ncn2[C@@H]1O[C@H](COP(=O)(O)OP(=O)(O)OP(=O)(O)O)[C@@H](O)[C@H]1O [ATP], the T cell activation [1] was “repressed”, the “ATP-induced B7-H3 surface expression upon P2RY2 disruption” value (B7-H3; P2RY2-deficient THP-1, U937, KBM7, K562 cells, presence of ATP (FIG. 2)) was “abrogated” and the B7-H3 expression (B7-H3) was “increased B7-H3 expression in a dose-dependent manner”.

With Nc1ncnc2c1ncn2[C@@H]1O[C@H](COP(=O)(O)OP(=O)(O)OP(O)(O)=S)[C@@H](O)[C@H]1O [Adenosine-5′-(γ-thio)-triphosphate] the T cell activation [1] was “repressed”.

In the case of Nc1ccn([C@H]2C[C@H](O)[C@@H](COP(=O)(O)OP(=O)(O)OP(=O)(O)OP(=O)(O)OC[C@H]3O[C@@H](n4ccc(=O)[nH]c4=O)[C@H](O)[C@@H]3O)O2)c(=O)n1 [Denufosol], the T cell activation [1] is reported as “repressed”.

O=c1ccn([C@@H]2O[C@H](COP(=O)(O)OP(=O)(O)OP(=O)(O)OP(=O)(O)OC[C@H]3O[C@@H](n4ccc(=O)[nH]c4=O)[C@H](O)[C@@H]3O)[C@@H](O)[C@H]2O)c(=O)[nH]1 [Diquafosol] was tested, and the “T cell-mediated cytotoxicity in THP-1 cells” value (THP-1 cells) was “confers resistance” and the T cell activation [1] was “repressed”.

O=c1ccn([C@@H]2O[C@H](COP(=O)(O)OP(=O)(O)OP(=O)(O)O)[C@@H](O)[C@H]2O)c(=O)[nH]1 [UTP] was tested, and the B7-H3 expression (B7-H3) was “increased B7-H3 expression in a dose-dependent manner”.

“atezolizumab: Blocking antibody of the PD-L1-PD-1 immune checkpoint” was tested, and the “viability of BxPC3 cells” value (BxPC3 cells) was “reduced”.
